What was measured:
[1] = test system: MMP-1; experiment: Western blot of MMP-1 in PMA- or IL-1β-pre-treated SW1353 cells (Example 6); format: cell-based, human; settings: 48 h
Protocol: (§1) The cells were then plated on 6-cm dishes at a density of 1×10^6 cells/dish for 24 hours prior to any treatment. At the beginning of the experiment, the cells were pre-treated with 100 ng/mL PMA or 10 ng/mL IL-1β for 24 hours. The cells were then treated 0.1 μM Dexamethasone with, various astragaloside compounds (0.1 μM) or extracts of Astragalus membranaceous (1 μg/mL) at indicated dosages for another 48 hours. For control sample, 0.1% DMSO was used as a negative control for these experiments. The conditioned culture mediums were then centrifuged, 2-fold concentrated and collected for assay of collagens or MMPs secreted into the culture medium.
(§2) Western blotting analysis was carried out on both cultured medium and cell lysates, as follows. The cells were washed and lysed in 0.2 mL of lysis buffer (1% NP-40, 50 mM Tris-HCl, pH 7.4, 180 mM NaCl, 1 mM EDTA, 1 mM PMSF, 1 mM NaF, 10 mM Na3VO4) for 30 min at 4° C. After centrifuging at 17500 g for 15 min, the supernatants of cell lysate were also collected. Protein concentration of the samples were measured using the bicinchoninic acid (BCA) protein assay kit according to the manufacturer's protocol (Pierce, Rockford, Ill., USA). Equal amount of protein samples of concentrated conditioned medium (100 μg) or cell lysate supernatants (50 μg) were mixed with an appropriate volume of 4×SDS sampling buffer and separated by 8% SDS-PAGE gel. The protein bands separated in the SDS-PAGE gel were blotted onto a polyvinylidene fluoride (PVDF) membrane. The blotted PVDF membrane was washed twice and blocked in freshly prepared Tris-buffered saline (TBS) containing 0.1% Tween-20 and 7% skim milk (TBST) for 2 hours at room temperature. The PVDF membrane was then incubated with either antibodies against collagen I and III or the housekeeping protein α-tubulin (Santa Cruz Biotechnology, Santa Cruz, Calif.) for 18 hours at 4° C. Horseradish peroxidase-conjugated anti-goat antibody was used as secondary antibody. Signals were visualized by an enhanced chemiluminescence kit (Clonetech, Palo Alto, Calif., USA) followed by exposure to X-ray films.

[2] = test system: MMP-13; experiment: Western blot of MMP-13 in PMA- or IL-1β-pre-treated SW1353 cells (Example 6); format: cell-based, human; settings: 0.1 μM, 48 h
Protocol: as §1
as §2, with “The PVDF membrane was then incubated with either antibodies against collagen I and III or the housekeeping protein α-tubulin (Santa Cruz Biotechnology, Santa Cruz, Calif.) for 18 hours at 4° C.” left out

[3] = test system: MMP-1; experiment: Zymography of MMP-1 from pre-treated SW1353 cells; format: cell-based, human; settings: 0.1 μM, 24 h
Protocol: (§3) At the beginning of the experiment, the cells were pre-treated with 100 ng/mL PMA or 10 ng/mL IL-1β for 24 hours. The cells were then treated with 0.1 μM Dexamethasone, various astragaloside compounds (0.1 μM) or extracts of Astragalus membranaceous (1 μg/mL) at indicated dosages for another 24 hours. For control sample, 0.1% DMSO was used as a negative control for these experiments. The conditioned culture mediums were then centrifuged, 2-fold concentrated and collected for assay of collagens or MMPs secreted into the culture medium.
(§4) The proteolytic activities of MMPs from SW1353 cells were measured essentially as described previously (Circ Res, 1999; 85:906-911). The cells were lysed in lysis buffer (1% Triton X-100, 50 mM Tris-Cl, pH 7.4, 180 mM NaCl, 1 mM EDTA). The samples were measured for their protein concentration using the bicinchoninic acid (BCA) protein assay kit as described. Samples of concentrated conditioned medium and cell lysates were mixed with non-reducing electrophoresis loading buffer and subjected to electrophoresis under non-reducing conditions. The electrophoresis was carried out on a 10% SDS-PAGE co-polymerized with 2 mg/mL gelatin or casein (Sigma, St. Louis, Mo. USA). For zymographic analysis of pro-MMP-2 and activated MMP-2, the total 20 μg of culture medium were used for electrophoresis. Following electrophoresis, renaturation of the proteins was achieved by incubating the gels twice in 25 g/L Triton X-100 at room temperature for 10 min. Subsequently the gels were incubated in 50 mM Tris-HCl, pH 7.5 containing 0.2 M NaCl, 0.02% Brij35 and 10 mM CaCl2 at 37° C. for 18 hours. After the gels were stained with Coomassie Brilliant Blue R-250 and destained, zones of proteolytic activities became visible as transparent bands in the stained gel. In order to obtain higher sensitivity, the gels were further destained in a solution of 1% Triton X-100 (1 to 2 hours). This procedure increased the signal-to-noise ratio, allowing the visualization of faint gelatinase bands at 92 kDa, 125 kDa and greater than 200 kDa. Zymograms were read using a Molecular Dynamics (Sunnyvale, Calif., USA) computing laser densitometer with Image Quant software.

[4] = test system: MMP-2; experiment: Zymography of MMP-2 from pre-treated SW1353 cells; format: cell-based, human; settings: 24 h
Protocol: as §3, §4

[5] = test system: MMP-9; experiment: Zymography of MMP-9 from pre-treated SW1353 cells; format: cell-based, human; settings: 24 h
Protocol: as §3, §4

[6] = test system: MMP-1; experiment: Western blot of MMP-1 in pre-treated human chondrocytes (HCHs); format: cell-based; settings: 48 h
[7] = test system: MMP-13; experiment: Western blot of MMP-13 in pre-treated human chondrocytes (HCHs); format: cell-based; settings: 48 h
[8] = test system: Type II Collagen; experiment: Western blot of Type II Collagen in pre-treated human chondrocytes (HCHs); format: cell-based; settings: 48 h
[9] = test system: HCH cells; experiment: Proline uptake assay; format: cell-based, human; settings: astragalosides 0.1 μM, 24 h, Ctrl 1.00
Protocol: The proline uptake assay was carried out as described below, generally in accordance with the method disclosed in Biochim Biophys Acta. 1104:283-292, 1992, the contents of which are incorporated by reference. Briefly, HCH cells were seeded into a 24-well plate at a density of 3×10^4 cells per well and cultured for 24 hours. The cells were then treated in the absence (solvent control) or presence of the astragalosides (0.1 μM) or Astragalus membranaceous extracts (1.0 μg/mL) for another 24 hours. The treated cells were then washed once with PBS and incubated in amino acid free medium (AAFM) for another 30 min. The treated cells were then replaced with fresh AAFM containing 50 μg/mL of ascorbate and total of 0.5 mM of L-proline containing 1 μCi [^3H] Proline (American Radiolabelled Chemicals Inc, ARC, St. Louis, Mo., USA). At designated time intervals, the cells were washed with AAFM containing cold proline and then lysed in 200 μL of 2% SDS. Cell lysates were centrifuged at 15000 g for 15 min. Intracellular proline uptaken by the cells was determined by transferring 10 μL of the cell lysate to filter-bottomed UniFilter plates (Perkim-Elmer) and counting. The samples were measured for their protein concentrations using the BCA protein assay kit as described above. The amount of proline accumulated in the cells was calculated and normalized to protein concentration. And cellular uptake rate was expressed as nmole of L-proline per minute per […] of cell protein (nmole/min/μg).

[10] = IL-1β-pre-treated SW1353 cell extract, compounds 0.1 μM
[11] = PMA-pre-treated SW1353 cell extract, 0.1 μM
[12] = IL-1β-pre-treated SW1353 cell extract
[13] = IL-1β-pre-treated SW1353 culture medium
[14] = IL-1β-pre-treated SW1353, compounds 0.1 μM
[15] = PMA-pre-treated SW1353 culture medium, 0.1 μM
[16] = PMA-pre-treated SW1353 culture medium
[17] = IL-1β-pre-treated HCH culture medium, compounds 0.1 μM
[18] = PMA-pre-treated HCH culture medium, 0.1 μM
[19] = IL-1β-pre-treated SW1353 culture medium, 0.1 μM

| Molecule | MMP-1, Western blot, relative to Ctrl 1.00 [1, 10] | MMP-1, Western blot, relative to Ctrl 1.00 [1, 11] | MMP-13, Western blot, relative to Ctrl 1.00 [2, 12] | MMP-13, Western blot, relative to Ctrl 1.00 [2, 13] | MMP-1, Zymography, relative to Ctrl 1.00 ([3]; IL-1β-pre-treated SW1353) | MMP-2, Zymography, relative to Ctrl 1.00 [4, 14] | MMP-9, Zymography, relative to Ctrl 1.00 [5, 14] | MMP-1, Western blot, relative to Ctrl 1.00 [1, 15] | MMP-13, Western blot, relative to Ctrl 1.00 [2, 16] | MMP-1, Zymography, relative to Ctrl 1.00 ([3]; PMA-pre-treated SW1353) | MMP-2, Zymography, relative to Ctrl 1.00 ([4]; PMA-pre-treated SW1353, 0.1 μM) | MMP-9, Zymography, relative to Ctrl 1.00 ([5]; PMA-pre-treated SW1353, 0.1 μM) | MMP-1, Western blot, relative to Ctrl 1.00 [6, 17] | MMP-1, Western blot, relative to Ctrl 1.00 [6, 18] | MMP-13, Western blot, relative to Ctrl 1.00 [7, 18] | Type II Collagen, Western blot, relative to Ctrl 1.00 [8, 17] | Type II Collagen, Western blot, relative to Ctrl 1.00 [8, 18] | MMP-1, Western blot, relative to Ctrl 1.00 [1, 19] | MMP-13, Western blot, relative to Ctrl 1.00 [7, 17] | also measured |
| --- | --- | --- | --- | --- | --- | --- | --- | --- | --- | --- | --- | --- | --- | --- | --- | --- | --- | --- | --- | --- |
| CC(=O)O[C@H]1[C@H](O[C@H]2CC[C@]34C[C@]35CC[C@]3(C)[C@@H]([C@@]6(C)CC[C@@H](C(C)(C)O)O6)[C@@H](O)C[C@@]3(C)[C@@H]5C[C@H](O[C@@H]3O[C@H](CO)[C@@H](O)[C@H](O)[C@H]3O)[C@H]4C2(C)C)OC[C@@H](O)[C@@H]1O [AS2, Astragaloside II] | 0.86 | 0.71 | 0.49 | 0.45 | 0.77 | 0.79 | 0.79 | – | – | – | – | – | – | – | – | – | – | – | – | – |
| Astragaloside I [AS1] | 0.66 | 0.86 | 0.37 | – | 0.86 | 0.76 | 0.79 | 0.48 | 1.15 | 0.85 | 0.87 | 1.23 | – | – | – | – | – | – | – | – |
| CC(C)(O)[C@@H]1CC[C@](C)([C@H]2[C@@H](O)C[C@@]3(C)[C@@H]4C[C@H](O[C@@H]5O[C@H](CO)[C@@H](O)[C@H](O)[C@H]5O)[C@H]5C(C)(C)[C@@H](O[C@@H]6OC[C@@H](O)[C@H](O)[C@H]6O[C@@H]6O[C@H](CO)[C@@H](O)[C@H](O)[C@H]6O)CC[C@@]56C[C@@]46CC[C@]23C)O1 [AS6, Astragaloside VI] | 0.63 | – | – | – | – | – | – | 0.40 | 0.93 | – | – | – | 0.97 | 0.51 | 0.26 | 1.34 | 1.74 | – | – | MMP-13, Western blot, relative to Ctrl 1.00 ([7]; PMA-pre-treated HCH cell extract, 0.1 μM): 0.54; proline uptake, Relative fold [9]: 1.69 fold |
| CC(C)(O)[C@@H]1CC[C@](C)([C@H]2[C@@H](O)C[C@@]3(C)[C@@H]4C[C@H](O)[C@H]5C(C)(C)[C@@H](O[C@@H]6OC[C@@H](O)[C@H](O)[C@H]6O[C@@H]6O[C@H](CO)[C@@H](O)[C@H](O)[C@H]6O)CC[C@@]56C[C@@]46CC[C@]23C)O1 [AS3, Astragaloside III] | 0.39 | – | 0.86 | – | – | – | – | – | – | 0.89 | 0.90 | 0.87 | – | – | – | 1.03 | – | 0.09 | 0.75 | – |
| C[C@@H]1C[C@H]2[C@@H]3CCC4=CC(=O)C=C[C@]4(C)[C@@]3(F)[C@@H](O)C[C@]2(C)[C@@]1(O)C(=O)CO [Dex, Dexamethasone, reference compound] | 0.26 | 0.38 | 0.64 | 0.29 | 0.80 | 0.42 | 0.58 | 0.60 | 0.46 | 0.87 | 0.99 | 0.92 | 0.28 | 0.28 | 0.74 | 1.20 | 1.20 | 0.38 | 0.74 | MMP-13, Western blot, relative to Ctrl 1.00 ([2]; PMA-pre-treated SW1353 cell extract): 0.48 |
